Measured values taken from US20240245704A1, “PHARMACEUTICAL COMPOSITION AND USE OF MULTI-KINASE INHIBITOR” (TRANSTHERA SCIENCES (NANJING), INC., priority 2021, published 2024).

Test system: human triple negative breast cancer BC408 subcutaneous xenograft tumor model
Assay: In vivo pharmacodynamic study on triple negative breast cancer patient-derived xenograft (PDX) subcutaneous tumor model
Set-up: species or system nude mice
Details: for TGI: TGI=1-T/C from relative tumor volumes
Method: The tumor masses were inoculated into the right back of the mice, the animals were weighed before administration, and tumor volumes were measured. Grouping was designed in blocks according to the tumor volume, with 8 mice per group except for the vehicle control, which contained 6 mice.
Administration was carried out as in Table 3 below.
Animals were monitored daily for health status and mortality, body weight and tumor volume were measured twice a week, and samples were collected after the last administration. […] T/C % is the relative tumor proliferation rate, i.e., the percentage of the relative tumor volume in the treatment and control groups at a given time point. T and C are relative tumor volumes (RTVs) of the treatment and control groups at a given time point, respectively. The calculation formula is as follows: T/C %=TRTV/CRTV×100% (TRTV: mean RTV for treatment group; CRTV: mean RTV for vehicle control group; RTV=Vt/V0, wherein V0 is the tumor volume of the animal at the time of grouping, and Vt is the tumor volume of the animal after treatment).

[1] = BC408 PDX in female nude mice, compound 29 15 mg/kg oral Qd*5 days/week, paclitaxel injection 25 mg/kg intraperitoneal Qw, 5 weeks

Structure (SMILES)	Tumor volume [1]	TGI [1]	Inhibitory effect on the triple negative breast cancer PDX subcutaneous tumor model (in words) (BC408 PDX, doses as in Table 3)
Cc1[nH]nc2c1N=C(c1ccccc1Cl)c1cnc(N3CCOCC3)cc1N2 [Compound 29]	666 mm^3	72%	significant inhibitory effect
CC(=O)O[C@H]1C(=O)[C@@]2(C)[C@H]([C@H](OC(=O)c3ccccc3)[C@]3(O)C[C@H](OC(=O)[C@H](O)[C@@H](NC(=O)c4ccccc4)c4ccccc4)C(C)=C1C3(C)C)[C@]1(OC(C)=O)CO[C@@H]1C[C@@H]2O [Paclitaxel, paclitaxel, reference compound]	–	58%	–
